Tested on: Hh pathway (Smo) in Shh-Light II cells
Assay: Shh-Light II Reporter Assay (firefly/Renilla luciferase)
Type: cell-based
Conditions: Mus musculus; for IC50: 3 uM Purmorphamine stimulation, 30 hrs
Protocol: Shh-Light II Reporter Assay
Assay designed to measure firefly and Renilla luciferase, in the same well.
Prior to assay the Shh-Light II cells (ATCC Catalog No. CRL-2795) were cultured in growth media
Day −1: seed 60,000 Shh-Light II cells in assay medium 75 uL/well, in presence of DMSO/inhibitor.
Day 0: after overnight incubation at 37° C. 10% CO2 add 3 uM of Purmorphamine (Calbiochem 540220) in water.
Day 1: After 30 hrs at 37° C. 10% CO2 of incubation develop the assay, directly to cells in growth medium. • Add 75 μl of DualGlow Luciferase Reagent (Promega, E2940) • Incubate 10 min. in the dark • Read plate at Luminometer: TopCount, by PerkinElmer • Add 75 ul of DualGlow Stop & Glow • Incubate 10 min. in the dark • Read plate at Luminometer: TopCount, by PerkinElmer. • Output is the ratio between FireFly/Renilla counts Growth Media: For Growth:
DMEM: Dulbecco's Mod Eagle Medium with 0.11 G/L Pyr, with Pyridoxine. (GIBCO Cat No: 41966-029). The medium has complemented with 10% FCS (fetal bovine serum), 1% Penicillin-Streptomycin (10 mg/ml) (GIBCO, 15140-114) and 1% L-Glutamine 200 mM (100×) (GIBCO, 3042190) and 0.4 mg/ml of G418 (Roche) and 0.15 mg/ml Zeocyne (Invitrogen R-250-01). Cells cultured at 10% CO2.
DMEM: Dulbecco's Mod Eagle Medium with 0.11 G/L Pyr, with Pyridoxine. (GIBCO Cat No: 21063-045), without Phenol Red. The medium has complemented with 2% FCS (fetal bovine serum), 1% Penicillin-Streptomycin (10 mg/ml) (GIBCO, 15140-114) and 1% L-Glutamine 200mM (100×) (GIBCO, 3042190). Cells cultured at 10% CO2. DMSO 0.25%.

IC50 [µM] | Structure (SMILES) | inhibition at 5 µM (5 μM compound) [%]
1.4 | Cn1c(-c2ccccc2C(F)(F)F)nnc1C12CCC(c3noc(C4CC(F)(F)C4)n3)(CC1)CC2 [Example 2, 5-(3,3-Difluorocyclobutyl)-3-(4-{4-methyl-5-[2-(trifluoromethyl)phenyl]-4H-1,2,4-triazol-3-yl}bicyclo[2.2.2]oct-1-yl)-1,2,4-oxadiazole] | 
2 | Cn1c(-c2ccccc2C(F)(F)F)nnc1C12CCC(c3nnc(C4CC(F)(F)C4)o3)(CC1)CC2 [Example 5, 2-(3,3-Difluorocyclobutyl)-5-(4-{4-methyl-5-[2-(trifluoromethyl)phenyl]-4H-1,2,4-triazol-3-yl}bicyclo[2.2.2]oct-1-yl)-1,3,4-oxadiazole] | 
9.3 | Cn1c(-c2ccccc2C(F)(F)F)nnc1C12CCC(c3nnc(C(C)(F)F)o3)(CC1)CC2 [Example 4, 2-(1,1-Difluoroethyl)-5-(4-{4-methyl-5-[2-(trifluoromethyl)phenyl]-4H-1,2,4-triazol-3-yl}bicyclo[2.2.2]oct-1-yl)-1,3,4-oxadiazole] | 
4.2 | Cn1c(-c2ccccc2C(F)(F)F)nnc1C12CCC(c3noc(C(C)(C)F)n3)(CC1)CC2 [Example 3, 5-(1-Fluoro-1-methylethyl)-3-(4-{4-methyl-5-[2-(trifluoromethyl)phenyl]-4H-1,2,4-triazol-3-yl}bicyclo[2.2.2]oct-1-yl)-1,2,4-oxadiazole] | 
 | Cn1c(-c2ccccc2C(F)(F)F)nnc1C12CCC(c3noc(C(C)(F)F)n3)(CC1)CC2 [Example 1, 5-(1,1-Difluoroethyl)-3-(4-{4-methyl-5-[2-(trifluoromethyl)phenyl]-4H-1,2,4-triazol-3-yl}bicyclo[2.2.2]oct-1-yl)-1,2,4-oxadiazole] | 35

Source: patent publication US7691887B2, “Triazole derivatives which are SMO antagonists” (Merck Sharp & Dohme Corp., priority 2007, dated 2010)
